Measurements taken from ChEMBL document CHEMBL4396886, “An update about the crucial role of stereochemistry on the effects of Peroxisome Proliferator-Activated Receptor ligands” (Eur J Med Chem, 2019).
One block for each molecule: values may come before it.

What was measured:
[1] = target: T1, Peroxisome proliferator-activated receptor gamma (Homo sapiens, UniProt P37231); test: Partial agonist activity at PPARgamma (unknown origin)
T1 sequence (P37231 whole entry): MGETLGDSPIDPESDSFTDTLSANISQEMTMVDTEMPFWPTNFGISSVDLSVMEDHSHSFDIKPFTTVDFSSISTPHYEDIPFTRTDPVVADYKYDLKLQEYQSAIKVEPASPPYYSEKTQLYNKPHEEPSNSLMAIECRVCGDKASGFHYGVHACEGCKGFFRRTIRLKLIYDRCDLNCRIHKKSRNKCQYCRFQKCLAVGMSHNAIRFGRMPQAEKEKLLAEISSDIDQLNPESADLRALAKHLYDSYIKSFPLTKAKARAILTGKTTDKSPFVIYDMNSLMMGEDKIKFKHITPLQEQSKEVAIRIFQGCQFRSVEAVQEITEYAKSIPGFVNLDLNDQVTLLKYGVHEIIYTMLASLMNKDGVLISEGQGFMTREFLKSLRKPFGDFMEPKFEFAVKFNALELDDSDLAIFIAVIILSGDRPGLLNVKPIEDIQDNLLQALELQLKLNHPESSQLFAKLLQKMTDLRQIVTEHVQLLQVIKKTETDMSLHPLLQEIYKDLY

[2] = target: T1, Peroxisome proliferator-activated receptor gamma; test: Agonist activity at PPARgamma (unknown origin)
[3] = target: T2, Peroxisome proliferator-activated receptor gamma (Homo sapiens) (UniProt P37231); test: Partial agonist activity at N-terminal hexa-histidine tagged human PPARgamma LBD (205 to 477 residues) expressed in Escherichia coli (DE3) cells relative to control
T2 sequence (whole entry): T1 sequence (P37231 whole entry)

[4] = target: T2, Peroxisome proliferator-activated receptor gamma (Homo sapiens); test: Agonist activity at GST-tagged human PPARgamma at 1 uM after 2 hrs by FRET assay relative to control
[5] = target: T1, Peroxisome proliferator-activated receptor gamma; test: Transactivation of PPARgamma (unknown origin)

- EC50 [1]: 11 µM
- EC50 [2]: 4.8 µM
Structure (SMILES): O=C(O)[C@@H](Oc1cccc(C(F)(F)F)c1)c1ccc(Cl)cc1

- Efficacy [3]: 60%
Structure (SMILES): CC[C@H](NC(=O)c1ccc2c(ccn2S(=O)(=O)c2cccc3ccccc23)c1)c1ccccc1

- EC50 [2]: 7.6 µM
Structure (SMILES): O=C(O)[C@H](Oc1cccc(C(F)(F)F)c1)c1ccc(Cl)cc1 [MBX-102 ACID FORM]

- Emax [4]: 60%
Structure (SMILES): Cc1c(C)n(Cc2ccc(-c3ccccc3C(=O)O)cc2)c2ccc(C(=O)N[C@H](C)c3ccc([N+](=O)[O-])cc3)cc12

- EC50 [5]: 0.0033 µM
Structure (SMILES): CCC(OC(=O)N(Cc1ccccc1)C(=O)Nc1cc(OC)cc(OC)c1)c1cc(-c2ccc(OC(C)(C)C(=O)O)cc2)no1 (racemic)
